Reference: US20120253264A1, “PHOTOCHEMICAL INTERNALIZATION METHOD” (priority 2009, published 2012)
Where two headings read alike, the source gives them in different places. Blank lines part the entries; values can stand above or below the compound they belong to.

Assays:
[1] = Stability of aqueous solutions of TPPS2a and TPCS2a salts at 40° C. for 31 days, analyzed by HPLC; assay type: physicochemical
Procedure: Aqueous solutions of TPPS2a salts (approx. 1% weight) were kept at 40° C. for 31 days. The solutions were analyzed by HPLC(HP 1100). The HPLC conditions were as follows:
Column: Agilent Extend C-18
Mobile phase: 85% methanol, 15% water
Detector: UV detector, 415 nm
Aqueous solutions of TPCS2a salts (approx. 1% weight) were kept at 40° C. for 31 days.

[2] = Solubility in water of TPPS2a and TPCS2a salts (water added in 0.2 ml portions to approx. 50 mg)
Text: (§1) The mixture was agitated until solid particles were broken up and dissolved.
as §1

[3] = TPPS2a salts, aqueous solution approx. 1% weight, 40° C., 31 days, HPLC UV 415 nm

Compound: NCCO.NCCO.O=S(=O)(O)c1ccc(-c2c3nc(c(-c4ccc(S(=O)(=O)O)cc4)c4ccc([nH]4)c(-c4ccccc4)c4nc(c(-c5ccccc5)c5ccc2[nH]5)C=C4)C=C3)cc1 [Example 1, Meso-Tetraphenyl Porphyrin Disulphonate Bis(Monoethanolamine)]
Degradation [1, 3]: No degradation

Minimum solubility in water [2]: 89.7 mg/mL
Degradation [1]: No degradation
Compound: CNCC(O)C(O)C(O)C(O)CO.CNCC(O)C(O)C(O)C(O)CO.O=S(=O)(O)c1ccc(-c2c3nc(c(-c4ccccc4)c4ccc([nH]4)c(-c4ccccc4)c4nc(c(-c5ccc(S(=O)(=O)O)cc5)c5ccc2[nH]5)C=C4)C=C3)cc1 [Example 2, Meso-Tetraphenyl Porphyrin Disulphonate Bis(Meglumate)]

Degradation [1]: No degradation
Compound: O=S(=O)(O)c1ccc(-c2c3nc(c(-c4ccccc4)c4ccc([nH]4)c(-c4ccccc4)c4nc(c(-c5ccc(S(=O)(=O)O)cc5)c5ccc2[nH]5)C=C4)C=C3)cc1.OCCNCCO.OCCNCCO [Example 4, Meso-Tetraphenyl Porphyrin Disulphonate Bis(Diethanolamine)]

Compound: O=S(=O)(O)c1ccc(-c2c3nc(c(-c4ccc(S(=O)(=O)O)cc4)c4ccc([nH]4)c(-c4ccccc4)c4nc(c(-c5ccccc5)c5ccc2[nH]5)C=C4)C=C3)cc1.OCCN1CCCC1.OCCN1CCCC1 [Example 5, Meso-Tetraphenyl Porphyrin Disulphonate Bis(1-(2-Hydroxyethyl)Pyrrolidine)]
Degradation [1]: No degradation

Compound: O=S(=O)(O)c1ccc(-c2c3nc(c(-c4ccc(S(=O)(=O)O)cc4)c4ccc([nH]4)c(-c4ccccc4)c4nc(c(-c5ccccc5)c5ccc2[nH]5)C=C4)C=C3)cc1.OCCN(CCO)CCO.OCCN(CCO)CCO [Example 6, Meso-Tetraphenyl Porphyrin Disulphonate Bis(Triethanolamine)]
Degradation [1, 3]: No degradation

Compound: Meso-Tetraphenyl Chlorin Disulphonate Bis(Meglumate) [Example 8]
Minimum solubility in water ([2]; TPCS2a salts, water added in 0.2 ml portions to approx. 50 mg until dissolved): 38.9 mg/mL
Degradation ([1]; TPCS2a salts, aqueous solution approx. 1% weight, 40° C., 31 days, HPLC): No degradation

Degradation [1]: No degradation
Compound: Meso-Tetraphenyl Chlorin Disulphonate Bis(Monoethanolamine) [Example 7]
